Assay results: US20240180485A1, “METHOD AND DEVICE FOR INDUCING HYPOMETABOLIC STATE IN SUBJECT WITH DISEASE” (UNIVERSITY OF TSUKUBA, priority 2021, published 2024)

Key:
wild-type mice = test: Metabolic state induced by IP CHA in wild-type mice
Protocol: The adenosinea receptor agonist CHA (N6-cyclohexyladenosine, Sigma-Aldrich, C9901) was dissolved in physiological saline at a concentration of 250 μg/mL, and the resulting solution was intraperitoneally administered to each mouse at a dose of 2.5 mg/kg.
In addition, the metabolic state induced by systemic delivery of the adenosine A1AR agonist (6)N-cyclohexyladenosine (CHA), which is used to induce a hypothermic state, was also investigated^19.

[1] = system: neurons in AVPe, MPA, and Pe; test: Fos immunostaining after CNO IP in Q-hM3D mice; type: in vivo, mouse; settings: 90 minutes after CNO IP
Protocol: Each mouse was deeply anesthetized with isoflurane, transcardially perfused with 10% sucrose in water, and subsequently perfused with ice-cooled 4% paraformaldehyde (4% PFA) in a 0.1 M phosphate buffer having a pH of 7.4, and the brain was removed. The brain was left in 4% PFA overnight at 4° ° C., then fixed, incubated overnight at 4° C. in 30% sucrose in a 0.1 M phosphate buffered saline (PBS) having a pH of 7.4, immersed in a Tissuue-Tek O.C.T. compound (Sakura) in a cryomold, and frozen at −80° C. until sectioned. The brain was sliced coronally by using a cryostat (CM1860, Leica) every 50 μm into four equal series, collected in a 6-well plate filled with ice-cooled PBS, and washed three times with PBS at room temperature (RT). Unless otherwise specified, the following incubation step was carried out with gently shaking on an orbital shaker. Brain sections were incubated for 1 hour at room temperature in 1% Triton X-100 in PBS. […]
The primary antibodies used in the present study were rabbit anti-cFos (1:4000, ABE457, Millipore), goat anti-mCherry (1:15000, AB0040-200, SICGEN), rat anti-GFP (1:5000, 04404-84, NACALAI TESQUE), mouse anti-TH (1:1000, sc-25269, Santa Cruz Biotechnology), mouse anti-orexin A (1:200, sc-80263, Santa Cruz Biotechnology), and rabbit anti-MCH (1:2000, M8440, SIGMA). […] Brain regions were determined by using mouse brain maps from Paxinos and Franklin^36.

Q-hM3D mice [2] = settings: mouse, in vivo
Description: In order to evaluate the thermoregulatory system under QIH and normal conditions, the heat loss and the heat production of the animals were described by a hierarchical multilayer model (FIGS. 3c to 3k, code folder QIH_GTRH). Three parameters of G, TR, and H under two metabolic conditions, that is, normal and QIH, were estimated from a metabolically stable state of the animals at various TAs. […] In brief, a linear model consisting of the controllable parameter TA and the observable parameters TB and VO2 was fitted to the experimental results for both TB and VO2 by using TA as a predictor having normally distributed noise. Next, G, TR, and H were estimated by using the posterior distributions of the slope and the intercept coefficient of each model. In this analysis, the prior probability density function of the standard deviation of noise was a standard half-normal distribution, and the other parameters used a positive region of a uniform distribution except for the intercept coefficient of TB, which used a uniform distribution due to negative values.
In order to evaluate this, feature analysis of the thermoregulatory system of mice during QIH was carried out. […] Q-hM3D mice were prepared, and TB and VO2 were recorded during QIH at various TAs (8, 12, 16, 20, 24, 28, and 32° C.) (FIG. 3a). […]

[3] = system: Qrfp-iCre; Rosa26^dreaddm3 mice; test: Thermographic surface body temperature and motor activity after CNO in Qrfp-iCre; Rosa26^dreaddm3 mice; type: in vivo, mouse
Description: For thermographic analysis, the mice were placed in an experimental cage (25×15×10 cm) and monitored by using an infrared thermal imaging camera (InfReC R500 EX; NIPPON AVIONICS) placed 30 cm above the cage floor. In order to clearly detect the surface temperature, the dorsal hair was removed by using hair clippers one day before the start of the experiment. Thermograms of DREADD and optogenetic experiments were collected at 0.5 Hz and 1 Hz, respectively, and analyzed by using the InfReC Analyzer NS9500 Professional software (NIPPON AVIONICS). The highest temperature in one frame was used as TS of the animal (FIG. 1d).
The pyroglutamylated RFamide peptide (QRFP), a hypothalamic neuropeptide, was originally discovered through a bioinformatics approach aimed at the discovery of a new RFamide peptide^9,10. The Qrfp peptide was also identified and purified from the rat brain as an endogenous ligand for the orphan G-protein-coupled receptor hGPR103^11. The prepro-Qrfp mRNA is localized only in the hypothalamus and is distributed in the periventricular nucleus (Pe), the lateral hypothalamus (LHA), and the tuber cinereum (TC) 11. Orfp has previously been implicated in food intake, sympathetic regulation, and anxiety^11,12. The inventors prepared mice (Qrfp-iCre mice) having codon-improved Cre recombinase (iCre) knocked-in into the Qrfp gene. In order to obtain mice (Qrfp-iCre; Rosa26^dreaddm3 mice) in which hM3Dq-mCherry was expressed only in iCre-expressing neurons, the inventors crossbred […] with Rosa26^dreadm3 mice having an upstream floxed transcription arrest element inserted at the Rosa26 gene locus. […] The decrease in Ts started about 5 minutes after CNO administration and lasted for approximately 12 hours. After that, the mice spontaneously recovered from the hypothermic state without external rewarming.

[4] = system: AVPe/MPA including Q-neurons; settings: AAV10-CaMKIIα-hM3Dq-mCherry injected into AVPe/MPA; cited from earlier work
[5] = system: hM3Dq-mCherry-expressing neurons; test: Current-clamp recording of hypothalamus slices with bath-applied CNO; type: cell-based, mouse; settings: bath application; CNO 1 μM; 30° C.
Protocol: The mice were decapitated under deep anesthesia using isoflurane (Pfizer). The brains were extracted and cooled in an ice-cold cutting solution containing the following (mM): 125 mM choline chloride, 25 mM NaHCO3, 10 mM D(+)-glucose, 7 mM MgCl2, 2.5 mM KCl, 1.25 mM NaH2PO4, and 0.5 mM CaCl2 bubbled with O2 (95%) and CO2 (5%). Horizontal brain slices (250 μm in thickness) including the hypothalamus were prepared by using a vibratome (VT1200S, Leica) and were maintained at room temperature for 1 hour in artificial CSF (ACSF) containing the following (mM): 125 mM NaCl, 26 mM NaHCO3, 10 mM D(+)-glucose, 2.5 mM KCl, 2 mM CaCl2), and 1 mM MgSO4 bubbled with O2 (95%) and CO2 (5%). The electrodes (5 to 8 MΩ) were filled with an internal solution containing the following (mM): 125 mM K-gluconate, 10 mM HEPES, 10 mM phosphocreatine, 0.05 mM tolbutamide, 4 mM NaCl, 4 mM ATP, 2 mM MgCl2, 0.4 mM GTP, and 0.2 mM EGTA, pH 7.3, adjusted with KOH). Firing of hM3Dq-mCherry-expressing neurons was recorded in current-clamp mode at a temperature of 30° C. CNO (1 μM) was bath-applied, and the effect was investigated. The membrane potential and data acquisition were controlled by using a combination of a MultiClamp 700B amplifier, a Digidata 1440A A/D converter, and Clampex 10.3 software (Molecular Devices). […]

Q-hM3D mice [6] = test: Body temperature, oxygen consumption, heart rate and respiration after CNO IP in Q-hM3D mice; type: in vivo, mouse
[7] = centrally administered; cited from earlier work
[8] = surface body temperature, thermographic camera

OC[C@H]1O[C@@H](n2cnc3c(NC4CCCCC4)ncnc32)[C@H](O)[C@@H]1O [CHA, N6-cyclohexyladenosine]
TB and VO2 when TA was set to 12° C. (wild-type mice; IP 2.5 mg/kg, CHA-induced hypothermia): further decreased | reaction to low TA (increase in VO2, posture, shivering) (wild-type mice; IP 2.5 mg/kg, TA 12° C.): did not react to a low TA | induction of hypothermic/hypometabolic state (wild-type mice; IP injection 2.5 mg/kg): effectively induced a hypothermic/hypometabolic state

C[N+]1([O-])CCN(C2=Nc3cc(Cl)ccc3Nc3ccccc32)CC1 [CNO, clozapine N-oxide]
in vivo excitation of neurons (anti-Fos and anti-mCherry) [1]: numerous mCherry and Fos double-positive neurons | difference between the medians of TR, normal vs QIH (Q-hM3D mice [2]): 8.41 °C | reduction in the median of H in QIH from the normal state (Q-hM3D mice [2]): 95.3% | hypothermia accompanying the CNO-induced immobile state ([3]; FIG. 1b): remarkable and sustained hypothermia | start of severe and sustained immobile state after injection ([3]; intraperitoneal (IP) injection): about 30 minutes | duration of decrease in Ts [3, 8]: approximately 12 hours | start of decrease in Ts after administration [3, 8]: about 5 minutes | induction of QIH in rats [4]: induced QIH with hypothermia and hypometabolism | excitation of mCherry-positive neurons [5]: strongly excited | induction of QIH (Q-hM3D mice [6]; CNO injection, before in situ hybridization): effectively induced QIH | QIH after repeated injections in the same mice (Q-hM3D mice [6]; FIG. 1h): reproducible | duration of very low TB state (below 30° C.) (Q-hM3D mice [6]; IP injection, FIG. 1d): ≥ 48 h | duration of QIH with a TB of less than 30° C. (Q-hM3D mice [6]; TA=20° C., one dose 1 mg/kg): ≥ 48 h | time for VO2 to fully return to normal (Q-hM3D mice [6]; TA=20° C., one dose 1 mg/kg): about 1 week | hypothermia compared with Qrfp-iCre; Rosa26^dreaddm3 mice (Q-hM3D mice [6]; mouse, in vivo, ip): deeper, longer-lasting hypothermia | O2 consumption rate (VO2) in the CNO-induced hypothermic state (Q-hM3D mice [6]; respiratory gas analysis, FIG. 1g): remarkable decrease | action of CNO on TB with TeTxLC co-expression (Q-hM3D mice [6]; simultaneous injection of AAV2/9-hSyn-DIO-TeTxLC-eYFP and AAV10-EF1α-DIO-hM3Dq-mCherry): completely eliminated | VO2 (Q-hM3D mice [6]; two hours after CNO injection, 3.60 before): 1.17 mL/g/h | respiratory rate (Q-hM3D mice [6]; two hours after CNO injection, 333 before, tidal volume below detection limit): undetectable | heart rate (Q-hM3D mice [6]; two hours after CNO injection, 758 two hours before, average of n=3): 215 beats/min

pyroglutamylated RFamide peptide (QDEGSEATGFLPAAGEKTSGPLGNLAEELNGYSRKKGGFSFRF; QRF-amide; UniProt P83859 91-133, looked up) [Qrfp, hypothalamic neuropeptide, endogenous ligand for the GPR103 receptor]
effect on sympathetic nerve outflow, heart rate and blood pressure [7]: increases sympathetic nerve outflow and increases the heart rate and the blood pressure
